Laboratory results published in the supplement of paper PMC10307832.

What was measured:
Test in all cases: relative viability (nuclei count vs DMSO), 5 days (fraction); higher = more cells survive
Tozasertib + Vorinostat = compound: Cc1cc(Nc2cc(N3CCN(C)CC3)nc(Sc3ccc(NC(=O)C4CC4)cc3)n2)n[nH]1 [Tozasertib] + O=C(CCCCCCC(=O)Nc1ccccc1)NO [Vorinostat] (partner 1 µM)
Method in brief: (§1)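 Lung cancer cell lines in 1536-well plates were dosed by pin tool the day after seeding, either with one drug alone or with a fixed anchor-drug dose plus five library-drug doses (not always all listed) in √10 steps. After 5 days, cells were fixed and their nuclei stained in one step (final 0.05% Triton X-100, 1% formaldehyde, 1 ug/ml Hoechst), then counted on 4× images. Relative viability is the nuclei count in treated wells divided by that in vehicle wells. Values are medians of duplicate plates.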

Tozasertib + Palbociclib = compound: Cc1cc(Nc2cc(N3CCN(C)CC3)nc(Sc3ccc(NC(=O)C4CC4)cc3)n2)n[nH]1 [Tozasertib] + CC(=O)c1c(C)c2cnc(Nc3ccc(N4CCNCC4)cn3)nc2n(C2CCCC2)c1=O [Palbociclib] (partner 0.5 µM)
Method in brief: as §1

Tozasertib + Navitoclax = compound: Cc1cc(Nc2cc(N3CCN(C)CC3)nc(Sc3ccc(NC(=O)C4CC4)cc3)n2)n[nH]1 [Tozasertib] + CC1(C)CCC(c2ccc(Cl)cc2)=C(CN2CCN(c3ccc(C(=O)NS(=O)(=O)c4ccc(N[C@H](CCN5CCOCC5)CSc5ccccc5)c(S(=O)(=O)C(F)(F)F)c4)cc3)CC2)C1 [Navitoclax] (partner 0.5 µM)
Method in brief: as §1

Tozasertib + Dasatinib = compound: Cc1cc(Nc2cc(N3CCN(C)CC3)nc(Sc3ccc(NC(=O)C4CC4)cc3)n2)n[nH]1 [Tozasertib] + Cc1nc(Nc2ncc(C(=O)Nc3c(C)cccc3Cl)s2)cc(N2CCN(CCO)CC2)n1 [Dasatinib] (partner 0.075 µM)
Method in brief: as §1

Tozasertib + OSI-027 = compound: Cc1cc(Nc2cc(N3CCN(C)CC3)nc(Sc3ccc(NC(=O)C4CC4)cc3)n2)n[nH]1 [Tozasertib] + COc1cccc2cc(-c3nc([C@H]4CC[C@H](C(=O)O)CC4)n4ncnc(N)c34)[nH]c12 [OSI-027] (partner 0.5 µM)
Method in brief: as §1

Row | Cell Line | relative viability (Tozasertib + Vorinostat; first compound 0.004 µM) | relative viability (Tozasertib + Vorinostat; first compound 0.01265 µM) | relative viability (Tozasertib + Vorinostat; first compound 0.04 µM) | relative viability (Tozasertib + Vorinostat; first compound 0.1265 µM) | relative viability (Tozasertib + Palbociclib; first compound 0.004 µM) | relative viability (Tozasertib + Palbociclib; first compound 0.01265 µM) | relative viability (Tozasertib + Palbociclib; first compound 0.04 µM) | relative viability (Tozasertib + Palbociclib; first compound 0.1265 µM) | relative viability (Tozasertib + Navitoclax; first compound 0.004 µM) | relative viability (Tozasertib + Navitoclax; first compound 0.01265 µM) | relative viability (Tozasertib + Navitoclax; first compound 0.04 µM) | relative viability (Tozasertib + Navitoclax; first compound 0.1265 µM) | relative viability (Tozasertib + Dasatinib; first compound 0.004 µM) | relative viability (Tozasertib + Dasatinib; first compound 0.01265 µM) | relative viability (Tozasertib + Dasatinib; first compound 0.04 µM) | relative viability (Tozasertib + Dasatinib; first compound 0.1265 µM) | relative viability (Tozasertib + OSI-027; first compound 0.004 µM) | relative viability (Tozasertib + OSI-027; first compound 0.01265 µM) | relative viability (Tozasertib + OSI-027; first compound 0.04 µM) | relative viability (Tozasertib + OSI-027; first compound 0.1265 µM)
1 | 201T | 0.939 | 0.902 | 0.968 | 0.946 | 0.355 | 0.362 | 0.364 | 0.224 | 1.16 | 1.22 | 1.23 | 1.16 | 0.593 | 0.503 | 0.714 | 0.555 | 0.76 | 0.781 | 0.839 | 0.621
2 | A-427 | 0.858 | 0.817 | 0.804 | 0.489 | 0.55 | 0.487 | 0.517 | 0.423 |  | 0.979 | 0.995 | 0.755 | 0.774 | 0.692 | 0.76 | 0.426 | 0.457 | 0.478 | 0.48 | 0.332
3 | ABC-1 | 1.35 | 1 | 0.767 | 0.306 | 0.722 | 0.769 | 0.44 | 0.533 |  |  |  |  | 0.494 | 0.535 | 0.577 | 0.258 | 0.542 | 0.495 | 0.58 | 0.207
4 | BEN | 0.551 |  | 0.59 | 0.398 | 0.455 | 0.475 | 0.481 | 0.432 | 0.0692 | 0.0723 | 0.0504 | 0.0587 | 0.372 | 0.354 | 0.363 | 0.287 | 0.333 | 0.335 | 0.309 | 0.284
5 | CAL-12T | 0.694 | 0.677 | 0.751 | 0.305 | 0.713 | 0.41 | 0.459 | 0.242 | 1.33 | 1.14 | 1.31 | 1.08 | 0.434 | 0.332 | 0.404 | 0.151 | 0.954 | 0.562 | 0.719 | 0.214
6 | COR-L23 | 0.522 | 0.403 | 0.393 | 0.198 | 0.309 | 0.297 | 0.274 | 0.161 | 1 | 0.897 | 0.954 | 0.757 | 0.521 | 0.547 | 0.479 | 0.245 | 0.747 | 0.726 | 0.635 | 0.538
7 | COR-L 105 | 0.998 |  | 0.936 | 0.512 | 0.353 | 0.393 | 0.419 | 0.356 | 0.787 | 0.644 | 0.932 | 0.542 | 0.352 | 0.291 | 0.32 | 0.214 | 0.698 | 0.68 | 0.731 | 0.343
8 | ChaGo-K-1 | 0.75 | 0.683 | 0.714 | 0.265 | 0.902 | 0.881 | 0.949 | 0.477 | 1.13 | 0.946 | 1.2 | 0.3 | 0.624 | 0.616 | 0.648 | 0.398 | 0.584 | 0.511 | 0.562 | 0.31
9 | EKVX | 0.665 | 0.543 | 0.637 | 0.613 |  | 0.367 | 0.418 | 0.412 | 0.932 | 0.939 | 1.06 | 0.914 | 0.494 | 0.606 | 0.471 |  | 0.692 | 0.671 | 0.734 | 
10 | EMC-BAC-2 | 0.438 | 0.233 | 0.242 | 0.15 | 0.542 | 0.501 | 0.514 | 0.433 | 1.18 | 1.14 | 1.25 | 0.812 | 0.314 | 0.321 | 0.342 | 0.259 | 0.381 | 0.389 | 0.381 | 0.262
11 | EPLC-272H | 0.521 |  | 0.318 | 0.287 | 0.367 | 0.313 | 0.318 | 0.356 | 1.1 | 1.17 | 1.08 |  | 0.313 | 0.399 | 0.39 | 0.291 | 0.289 | 0.256 | 0.288 | 0.265
12 | H3255 | 0.86 | 0.676 |  | 0.712 | 0.33 | 0.292 | 0.315 | 0.324 | 0.336 | 0.594 | 0.569 | 0.463 | 0.37 | 0.409 | 0.339 | 0.304 | 0.452 | 0.492 | 0.61 | 0.459
13 | HARA | 0.674 | 0.427 | 0.507 | 0.419 | 0.333 | 0.248 | 0.262 | 0.207 | 1.17 | 1.07 | 1.15 | 1.07 | 0.286 | 0.281 | 0.336 | 0.303 | 0.467 | 0.447 | 0.583 | 0.343
14 | HCC-15 | 0.86 | 0.735 | 0.923 |  | 0.752 | 0.675 | 0.73 | 0.621 | 0.692 | 0.692 | 0.768 | 0.641 | 0.61 | 0.532 | 0.624 | 0.319 | 0.745 | 0.64 | 0.665 | 0.419
15 | HCC-44 | 1.09 | 1 | 1.04 | 0.901 | 1.03 | 0.954 | 1.02 | 0.874 | 1.04 | 0.977 | 0.985 | 0.955 |  |  |  |  | 0.605 | 0.485 | 0.606 | 0.341
16 | HCC-78 | 0.445 | 0.386 | 0.45 | 0.373 | 0.404 | 0.466 | 0.451 | 0.484 | 0.822 | 0.633 |  | 0.539 | 0.541 | 0.316 | 0.469 | 0.322 | 0.387 | 0.357 | 0.363 | 0.361
